Entries after “also recorded” stand apart in the source; their conditions may differ.
Columns and labels:
Assay type in all cases: in vivo, mouse
[1] = system: Ndufs4(KO) mice; assay: Longitudinal assessment of neurological disease symptoms (clasping, ataxia, circling)
Protocol: Longitudinal assessments of neurological disease symptoms. Clasping, ataxia, and circling were assessed by visual scoring, as previously described. As disease progresses in the Ndufs4(KO) mice animals display intermittent/transient improvement of symptoms. […] For observational assessments, lab-wide quality control discussions occurred frequently to ensure consistency between technicians/researchers. Technicians contributed equally to each treatment group to minimize any potential bias between individuals.

[2] = system: Ndufs4(KO) mice; assay: Rotarod assay; settings: latency to fall up to 10 min, 6 rpm
Protocol: Rotarod and rotarod seizures. Rotarod assays were performed using a Med Associates Inc. (Fairfax, VT) ENV-571M single lane rotarod with a black mat installed in the floor of the lane to reduce visibility of the bottom. Assays were performed by placing animals onto an already rotating rod and timing latency to fall, with a steady rotation speed set to 6 rpm (controlled by attached laptop and Med Associates software). The maximum time of each trial was 10 min, with the trial ending at that time if mice were still on the rotarod. For each assay, three trials were performed, with a minimum of 5 min between each assay. The best of the three trials was reported for the rotarod data. As detailed in the text and figure legends, rotarod was performed each 10 days of age from P30; mice in a given age group were the reported age +/−1 day.

[3] = system: Ndufs4(KO) mice; assay: Point-of-care blood glucose by age
Description: Point-of-care glucose and lactate testing. Blood glucose and lactate measurements were collected using point-of-care meters (Prodigy Autocode® glucose meter, product #51850-3466188, Prodigy® Diabetes Care, LLC, Charlotte, NC; lactate assay meter, product #40828, Nova Biomedical, Waltham, MA) and the tail-prick method, as previously described (Stokes et al. Elife 2021; 10:e65400).

[4] = system: Ndufs4(KO) mice; assay: Respiratory measurements by whole-body plethysmography; settings: 300 mg/kg/day
Protocol: Respiratory measurements. Breathing parameters were recorded from alert, unrestrained, adult (P60) mice using whole-body plethysmography. Paired 300 ml recording and reference chambers were continuously ventilated (150 ml/min) with either normal air (79% nitrogen and 21% oxygen) or a hypercapnic gas mixture (74% nitrogen, 21% oxygen, and 5% CO2). Pressure differences between the recording and reference chambers were measured (Buxco Respiratory Products) and digitized (Axon Instruments) to visualize respiratory pattern, and simultaneous video recordings were performed to differentiate resting breathing activity from exploratory sniffing and grooming behaviors. Untreated and treated (pexidartinib 300 mg/kg/day) control and Ndufs4(KO) mice were allowed to acclimate to the chambers for 30-40 min prior to acquisition of 35 min of respiratory activity in normal air. The respiratory response to hypercapnia was then tested by ventilating the chambers with hypercapnic gas for 15 min. Respiratory frequency, and breath-to-breath irregularity scores (irreg.score=ABS((N-(N−1))/N)) of frequency and amplitude (peak inspiratory airflow) were quantified during periods of resting breathing (pClamp10 software). During hypercapnic challenges, only data during the final 5 min of the 15 min period were analyzed. […]

[5] = system: Ndufs4(KO) mice; assay: Isoflurane induced hyperlactemia assay; settings: 0.4% isoflurane for 30 min, P50, 300 mg/kg/d
Protocol: Isoflurane induced hyperlactemia assays. All of these experiments were performed at P50. Mice were subject to normal daily monitoring (see survival studies) up until P50. At P50, baseline blood glucose, lactate, and […] (β-HB) levels were measured using point-of-care meters using the tail-prick method, as described. Mice were then immediately exposed to 0.4% isoflurane or carrier gas only (100% oxygen) for 30 min. At the 30 minutes, blood glucose, lactate, and β-HB were measured again.

[6] = system: Ndufs4(KO) mice; assay: Minimum Alveolar Concentration (MAC) of isoflurane associated with anesthesia; settings: 300 mg/kg/day, P30 Ndufs4(KO) animals
Description: In particular embodiments, effective amounts can be evidenced by reduced sensitivity to volatile anesthetics. Sensitivity to volatile anesthetics can be determined by measuring the minimum alveolar concentration (MAC). MAC provides a correlation between the dose of an anesthetic and immobility. (Lobo et al. (2020) StatPearls, World Wide Web at ncbi.nlm.nih.gov/books/NBK532974/). […] MAC can be expressed as volumes percent of alveolar (end-tidal) gas at one atmosphere pressure at sea level (i.e., 760 mm Hg). In particular embodiments, volatile anesthetics can include nitrous oxide, isoflurane, desflurane, halothane, and sevoflurane. Mice can be exposed to an anesthetic by using a vaporizer at a particular flow rate (e.g., 3-4 liters/min) through a humidifier in-line. […] In particular embodiments, sensitivity to volatile anesthetics can be reduced in a subject administered a composition including a therapeutically effective amount of an inhibitor of the disclosure, as compared to sensitivity to volatile anesthetics in the subject not administered the composition, as measured by a relevant test such as MAC.
To test whether leukocyte depletion might impact VA hypersensitivity, the Minimum Alveolar Concentration (MAC) of isoflurane associated with anesthesia in control and 300 mg/kg/day pexidartinib treated Ndufs4(KO) animals was assessed (see Experimental Methods in Example 1 for details). […]

[7] = system: control and Ndufs4(KO) mice; assay: Plasma ALT and AST enzymatic activity assays; settings: 300 mg/kg/day, both genotypes
Protocol: Plasma ALT and AST measures. Small volumes (5-10 μL) of blood were collected using tail-prick and heparinized microhematocrit tubes (Fisher Scientific cat. #22-362566), placed on ice in 15 mL sample tubes, then moved (by pipette) into 1.5 mL microcentrifuge tubes and stored at −80° C. until used for ALT and AST enzymatic assays. ALT and AST were quantified using colorimetric enzymatic activity assay kits (Sigma, cat. #'s MAK052 and MAK055, respectively) according to manufacturer recommendations. Absorbance was measured on a NanoDrop 1000 (ThermoScientific).

[8] = system: control and Ndufs4(KO) animals; assay: Observation of coat color under treatment; settings: higher doses (of 100, 200, 300 mg/kg/day) in chow
Protocol: To directly test this model, Ndufs4(KO) and control animals were treated with 100, 200, or 300 mg/kg/day pexidartinib in normal mouse chow (dosing is approximated based on food consumption, see Experimental Methods in Example 1).

FC(F)(F)c1ccc(CNc2ccc(Cc3c[nH]c4ncc(Cl)cc34)cn2)cn1 [pexidartinib, 5-[(5-chloro-1H-pyrrolo[2,3-b]pyridin-3-yl)methyl]-N-[[6-(trifluoromethyl)pyridin-3-yl]methyl]pyridin-2-amine]
clasping, ataxia, circling endpoints compared with mTOR inhibition ([1]; 200 mg/kg/day): roughly matched mTOR inhibition | clasping, ataxia, circling endpoints compared with mTOR inhibition ([1]; 300 mg/kg/day): performed substantially better | neurologic disease onset and severity as measured by clasping ([1]; 100, 200, and 300 mg/kg/day): affect neurologic disease onset and severity | onset of symptoms: forelimb clasping, ataxia, and circling ([1]; Ndufs4(KO) mice vs untreated): dose-dependently delayed the onset and reduced overall incidence | performance on rotarod assay [2]: rescued performance; also recorded: dose-dependent effect | hypoglycemia (blood glucose) [3]: prevented | respiratory dysfunction in normal air ([4]; P60): completely rescued | respiratory response to increased CO2 ([4]; P60, 5% CO2): completely rescued | blood lactate spike after isoflurane exposure [5]: fully suppressed this lactate spike | hypersensitivity to sedation by isoflurane (MAC) [6]: modest, but statistically significant, attenuation | ALT level [7]: significantly elevated | AST level [7]: significantly elevated | coat/fur color [8]: turns fur white; also recorded: change in mouse coat color | coat/fur color ([8]; listed as Pexidartinib): caused animal fur to whiten

Reference: patent US20230321063A1, “COMPOSITIONS AND METHODS TO REDUCE NEUROINFLAMMATION” (Seattle Children's Hospital d/b/a Seattle Children's …, priority 2020, published 2023)
